US20120316203A1, “Compositions and Methods for Inhibition of Cancers” (THE OHIO STATE UNIVERSITY RESEARCH FOUNDATION, priority 2009, published 2012)
“Also recorded” adds a separate entry of the source.

Experiments:
[1] = test system: A2780 and HSMC cells; experiment: Viability of cells exposed to stand-alone N-hydroxypyrroline or nitroxide (MTT); assay type: cell-based, human; settings: 24 h
Experimental: (§1) Cell viability was determined by a colorimetric assay using MTT. In the mitochondria of living cells, yellow MTT undergoes a reductive conversion to formazan, giving a purple color. Cells, grown to […] confluence in 75-mm flasks, were trypsinized, counted, seeded in 96-well plates with an average population of 7000 cells/well, incubated overnight, and then treated with the DAPs (H-4073, HO-3867, H4318, or HO-4200; […]) for 24 h. All experiments were done using eight replicates and repeated at least three times. Cell viability was expressed as the percentage of MIT viability of untreated cells.
To determine the role of the N-hydroxypyrroline function in the cytotoxicity, we additionally evaluated the effects of 3-CPH (a stand-alone analog of N-hydroxypyrroline) and 3-CP (a nitroxide version 3-CPH) on A27180 and HSMC cells. […] Overall the viability results implicate the diarylidenyl piperidone group in inducing cytotoxicity and the N-hydroxypyrroline group in protecting noncancerous cells.

[2] = compared with cisplatin and curcumin; cited from earlier work
[3] = test system: hOSE cells, HSMC, and HAEC; experiment: Cytotoxicity of DAPs to noncancerous cells (MTT); assay type: cell-based, human
Experimental: as §1

[4] = test system: A2780, A2780R, MCF-7, HCT-116, PC-3, HepG2, A549, and SCC4 human cancer cell lines; experiment: Cytotoxicity of DAPs to cancer cells (MTT); assay type: cell-based; settings: 10 μM, 24 h
Experimental: as §1

[5] = test system: HSMC; experiment: Intracellular ROS by DCF fluorescence, HSMC; assay type: cell-based, human; settings: 10 μM, 12 h
Experimental: The ROS levels in cells treated with DAPs were determined using H2DCF-DA, a membrane-permeative fluorogenic probe. The acetate and acetoxymethyl ester groups of this probe are enzymatically cleaved inside living cells. The probe can then be oxidized by intracellular oxidants (ROS) to give a product, DCF, which emits a strong, green fluorescence (λex=504 nm; λem=529 nm). The fluorescence intensity is proportional to the level of cellular oxidants. […] The cells were further incubated in the dark for 20 min and washed with protein-free medium, and then fluorescence images were immediately captured with a Nikon Eclipse TE2000-U camera system using excitation/emission at 495/520 nm. The captured images were then analyzed using MetaMorph image analysis software.

[6] = test system: A2780 cells; experiment: Intracellular ROS by DCF fluorescence, A2780; assay type: cell-based, human; settings: 5 or 10 μM, 12 h
Experimental: The ROS levels in cells treated with DAPs were determined using H2DCF-DA, a membrane-permeative fluorogenic probe. The acetate and acetoxymethyl ester groups of this probe are enzymatically cleaved inside living cells. The probe can then be oxidized by intracellular oxidants (ROS) to give a product, DCF, which emits a strong, green fluorescence (λex=504 nm; λem=529 nm). The fluorescence intensity is proportional to the level of cellular oxidants. Cells, grown to 80% confluence on 6-mm glass coverslips, were treated with […] H-4073, HO-3867, H-4318, or HO-4200 for 12 h, followed by incubation with H2DCF-DA. The cells were further incubated in the dark for 20 min and washed with protein-free medium, and then fluorescence images were immediately captured with a Nikon Eclipse TE2000-U camera system using excitation/emission at 495/520 nm. The captured images were then analyzed using MetaMorph image analysis software.

[7] = Superoxide radical-scavenging by EPR (xanthine/xanthine oxidase, DEPMPO competition); settings: 100 μM compound versus 1 mM DEPMPO
Experimental: Electron paramagnetic resonance (EPR) spectroscopy was used to quantitatively determine the relative superoxide-scavenging ability of the DAPs in comparison with DEPMPO, a known superoxide scavenger. Superoxide radicals were generated using an aerated solution of PBS (pH 7.4) containing xanthine (0.2 mM), xanthine oxidase (0.02 U/ml), and diethylenetriamine pentaacetic acid (0.1 mM). The superoxide radicals (O2^−) generated by the xanhine-xanthine oxidase reaction were reacted with DEPMPO (1 mM) to form a paramagnetic adduct (DEPMPO-OOH), which was detected using X-band (9.8 GHz) EPR spectroscopy. In separate experimental groups, […], or SOD (500 U/ml) was added to the reaction mixture. […] The generation of the DEPMPO-OOH adduct was measured at 10 min after initiation of the reaction.
Both N-hydroxypyrroline and nitroxide have antioxidant properties including SOD- and catalase-mimetic activity. Therefore, we determined the superoxide radical-scavenging ability of DAPs using a competitive reaction in the presence of DEPMPO. Superoxide radicals were generated using an aerobic solution of xanthine and xanthine oxidase and detected as DEPMPO-OOH adduct by EPR spectroscopy. The DAP compounds (100 μM) were used to compete with 1 mM DEPMPO for the superoxide ions. SOD (4.2 μM) was used as a positive control.

[8] = test system: A2780 and other cancer cells; experiment: Metabolic conversion to nitroxide in cancer cells (EPR); assay type: in vitro ADME, human; settings: 37° C., EPR
From the text: The N-hydroxypyrroline (—NOH) moiety is capable of undergoing a reversible one-electron oxidation to its nitroxide form (—NO; FIG. 9A), which is paramagnetic and detectable by EPR spectroscopy.

[9] = test system: A2780 cells; experiment: Cell proliferation by clonogenic assay; assay type: cell-based, human; settings: 24 hours treatment, 7 days growth
Experimental: Cell survival was assessed by clonogenic assay. Cells at […] confluence were trypsinized, rinsed, seeded onto 60-mm dishes (5×10^4 cells per dish), grown for 24 hours at 37° C., and treated afterward with H-4073 or HO-3867 for 24 hours. Nontreated cells served as controls. After treatment, the cells were washed twice with PBS, trypsinized, counted, and plated in 60-mm dishes in triplicate and incubated for an additional 7 days. The colonies were then stained with crystal violet (in ethyl alcohol) and counted using an automated colony counter (ColCount, Oxford Optronix). Each experiment was repeated at least five times.

[10] = test system: A2780 cells; experiment: Cell viability by MTT assay, A2780 cells; assay type: cell-based, human; settings: 24 hours, dose series
Experimental: (§2) Cell viability was determined by a colorimetric assay using MTT. In the mitochondria of living cells, yellow MTT undergoes a reductive conversion to formazan, producing a purple color. Cells, grown to […] confluence in 75-mm flasks, were trypsinized, counted, seeded in 96-well plates with an average population of 7,000 cells per well, incubated overnight, and then treated with curcumin, H-4073, or HO-3867 for 24 hours. All experiments were done using eight replicates and, repeated at least thrice.

[11] = test system: hOSE cells; experiment: Cell viability by MTT assay, noncancerous hOSE control cells; assay type: cell-based, human; settings: 20 μmol/L
Experimental: as §2

[12] = test system: A2780R, PA-1, SKOV3, OV4, and OVCAR3 human ovarian cancer cell lines; experiment: Cell viability by MTT assay, other ovarian cancer cell lines; assay type: cell-based; settings: 10 μmol/L; 24 h
Experimental: as §2

CC1(C)CC(C(N)=O)C(C)(C)N1[O] (stereo not shown) [3-CP, 3-carbamoyl proxyl]
cell viability of A2780 and HSMC cells [1]: did not show any significant effect

CC1(C)CC(C(N)=O)C(C)(C)N1O (stereo not shown) [3-CPH, N-hydroxy-3-carbamoyl proxyl]
cell viability of A2780 and HSMC cells [1]: did not show any significant effect

O=C1/C(=C/c2ccccc2F)CNC/C1=C\c1ccccc1F [DAP-F(o)]
IC50 [2]: lower than both cisplatin and curcumin

CC1(C)C=C(CN2C/C(=C\c3ccc(C(F)(F)F)cc3)C(=O)/C(=C/c3ccc(C(F)(F)F)cc3)C2)C(C)(C)N1O [HO-4200, 1-[(1-oxyl-2,2,5,5-tetramethyl-2,5-dihydro-1H-pyrrol-3-yl)-methyl]-(3E,5E)-3,5-bis(4-trifluoromethylbenzylidene)piperidin-4-one]
cell viability of noncancerous (healthy) human cell lines ([3]; 10 NM, 24-h incubation): significantly less toxic
cell viability of human cancer cell lines [4]: substantial loss of cell viability
amounts of ROS in HSMC compared to A2780 cells [5]: significantly lower amounts of ROS
intracellular ROS generation (DCF fluorescence) in HSMC [5]: induced significant ROS generation
intracellular ROS generation (DCF fluorescence) in A2780 cells [6]: induced significant ROS generation
diminution of the DEPMPO-OOH concentration [7]: −50%

O=C1/C(=C/c2ccc(C(F)(F)F)cc2)CNC/C1=C\c1ccc(C(F)(F)F)cc1 [H-4318, (3E,5E)-3,5-bis(4-trifluoromethylbenzylidene)piperidin-4-one]
cell viability of human cancer cell lines [4]: substantial loss of cell viability; also recorded: higher toxicity compared to HO-3867 or HO-4200
intracellular ROS generation (DCF fluorescence) in HSMC [5]: induced significant ROS generation
EPR spectrum (nitroxide signal) after incubation with A2780 cells [8]: did not show any EPR signal
intracellular ROS generation (DCF fluorescence) in A2780 cells [6]: induced significant ROS generation
effect on the superoxide adduct level [7]: did not show any significant effect

O=C1/C(=C/c2ccc(F)cc2)CNC/C1=C\c1ccc(F)cc1 [H-4073, (3E,5E)-3,5-Bis(4-fluorobenzylidene)piperidin-4-one]
number of colonies (colony-forming ability) [9]: dose-dependent reduction in the number of colonies
viability of hOSE cells ([3]; same dose for both compounds): significantly reduced
cell viability of human cancer cell lines [4]: substantial loss of cell viability; also recorded: higher toxicity compared to HO-3867 or HO-4200
cytotoxicity, viability of A2780 cells [10]: significantly higher toxicity when compared with curcumin
intracellular ROS generation (DCF fluorescence) in HSMC [5]: induced significant ROS generation
EPR spectrum (nitroxide signal) after incubation with A2780 cells [8]: did not show any EPR signal
intracellular ROS generation (DCF fluorescence) in A2780 cells [6]: induced significant ROS generation
effect on the superoxide adduct level [7]: did not show any significant effect
cytotoxicity to hOSE cells [11]: significant cytotoxicity
cytotoxicity in other human ovarian cancer cell lines [12]: equally and significantly toxic

COc1cc(/C=C/C(=O)CC(=O)/C=C/c2ccc(O)c(OC)c2)ccc1O [curcumin, Curcumin, reference compound]
cytotoxicity, viability of A2780 cells [10]: dose-dependent cytotoxicity
